Results as given in patent US11572557B2, “Photoreversible acylation reagents” (The Board of Trustees of the Leland Stanford Junior …, priority 2018, dated 2023).

Key:
[1] = system: 34 nt hammerhead ribozyme RNA; experiment: Hammerhead ribozyme cleavage of Cy5-labeled substrate (urea PAGE); type: biochemical
Description: In this example, the ability of photocloaking to control the more complex function of a ribozyme RNA was examined. To form proper tertiary structure and initiate activity, RNA-cleaving ribozymes hybridize and bind metals (See Y Liu, T. J. Wilson, and D. M. J. Lilley Nat. Chem. Biol. 2017, 13, 508-13, the disclosure of which is herein incorporated by reference. Several examples of photocontrolled ribozymes have been reported previously (See S. G. Chaulk and A. M. MacMillan Nucleic Acids Res. 1998, 26, 3173-78; A. Nierth, M. Singer and A Jaschke Chem. Commun. (Camb). 2010, 46, 7975-77; D. D. Young and A. Dieters Bioorganic Med. Chem. Lett. 2006, 16, 2658-61; and S. G. Chaulk and A. M. MacMillan, 2007 cited supra; the disclosures of which are herein incorporated by reference), with the goal of studying ribozyme structure and folding. All prior studies, however, have been performed with modifications incorporated into RNAs during solid-phase synthesis. Thus, PCA 1 was tested whether it could be used to block a ribozyme in a single post-synthetic step, and subsequently phototrigger its activity. A 34 nt hammerhead ribozyme RNA (FIG. 18A; Seq. ID No. 5) was cloaked under standard conditions at room temperature and isolated from excess reagent and DMSO by precipitation. The cloaked ribozyme (200 nM) was then incubated with Cy5-labeled substrate (500 nM) in 50 mM Tris pH=6.0, 10 mM MgCl2 for 1 hour. The reaction was stopped by the addition of 8 M urea, 100 mM EDTA solution and then analyzed by urea PAGE (FIGS. 18B and 18C). […] The initial rates of substrate conversion were determined before and after cloaking (FIGS. 18D and 18E). […] After cloaking, the rate dropped 370-fold to 3.010^−3 min^−1, showing strong blocking of ribozyme function. […] Thus, ribozyme function can be robustly controlled by a direct photocloaking strategy.

12 nt DNA = experiment: Control incubation of analogous 12 nt DNA with PCA 1 (PAGE); details: analogous 12 nt DNA incubated with PCA 1
[2] = system: 105 nt F30 Broccoli aptamer; experiment: Broccoli aptamer folding / DFHBI fluorescence emission in vitro; type: biochemical; details: RNA cloaked 4 h with 100 mM PCA in water, no light
Procedure: In this example, the ability of PCAs to control longer RNAs produced by transcription was tested. Photocontrolled aptamers have recently gained interest due to their potential for therapeutic and imaging applications, as exemplified by recent work by Langer and Kohane in which a 26nt nucleolin-binding aptamer for cancer targeting was reported (L. Li et al. Proc. Natl. Acad. Sci. 2014, 111, 17099-103, the disclosure of which is herein incorporated by reference; See also, M. C. Buff et al Nucleic Acids Res. 2009, 38, 2111-18; L. Qiu et al. J. Am. Chem. Soc. 2013, 135, 12952-55; A Heckel and G. Mayer J. Am. Chem. Soc. 2005, 12, 822-23; and A. Pinto et al. ACS Chem. Biol. 2012, 7, 360-66; the disclosure of which are herein incorporated by reference). […] Broccoli RNA folds into a compact tertiary structure, forming a binding site for the DFHBI dye, which results in a strong increase in fluorescence.
F-30 Broccoli DNA template (3 ng) (Table S1) was amplified by PCR (98° C. for 30 s; 30 times: 98° C. for 10 s, 61° C. for 30 s, 72° C. for 30 s; 72° C. for 5 min, 4° C. forever) using Phusion High-Fidelity PCR master Mix (NEB), and primers mix in 50 μL reaction, according to the NEB protocol. […] Fluorescent emission spectra were recorded on a Fluorolog 3-11 instrument (Jobin Yvon-SPEX), λex=450 nm at 25° C. […]

[3] = system: F30-2xd Broccoli aptamer RNA in HeLa cells; experiment: Epifluorescence microscopy of HeLa cells transfected with 237 nt Broccoli aptamer RNA; type: cell-based, human
Procedure: In this example, the capability to use this photocloaking strategy to switch on RNA function in cells was assessed by transfecting a cloaked Broccoli RNA construct into human cells and then exposing cells to light was explored. For these experiments, a larger 237 nt RNA (Seq. ID No. 7) construct encoding two dimeric Broccoli aptamers was prepared. This construct is known to be stable in the intracellular medium (G. S. Filonoy et al. Chem. Biol. 2015, 22 (5), 649-60, the disclosure of which is herein incorporated by reference). Accordingly, F30-2xdB_2 DNA (100 pmol; Seq. ID No. 8) was 5′ adenylated using Mth Ligase (100 pmol, NEB) according to NEB's protocol. Mini Elute columns, and PNI Buffer (Qiagen) were used to clean up double stranded DNA samples according to manufacturer's instructions. ssDNAs F30-2xdB_2 (40 pmol) and F30-2xdB_1 (20 pmol) were ligated according to NEB description, using Thermostable 5′ App DNA/RNA Ligase (40 pmol, NEB). Ligated DNA was purified on DNA Clean&Concentrator 5 columns (Zymo Research) using Zymo's protocol. F-30 2xd Broccoli ssDNA template (3 ng) was amplified by PCR (98° C. for 30 s; 30 times: 98° C. for 10 s, 60° C. for 30 s, 72° C. for 30 s; 72° C. for 5 min, 4° C. forever) using Phusion High-Fidelity PCR master Mix (NEB), and primers mix in 50 μL reaction, according to the NEB protocol. […]

complementary DNA strand = experiment: Thermal denaturation (melting curve) of RNA template 1 annealed to complementary DNA; type: physicochemical; details: duplex with complementary DNA, phosphate buffer pH=7.2, 100 mM NaCl, 300 nM
Procedure: Hybridization of untreated, cloaked, and uncloaked RNA was examined. Initial experiments measured the effect of photocloaking on thermal stability of a duplex. Untreated and cloaked RNA template 1 (Seq. ID No. 2) were annealed to its complementary DNA strand in phosphate buffer pH=7.2, 100 mM NaCl at 300 nM by heating the sample to 95° C. for 2 min and then cooling to room temperature. Melting curves were obtained by monitoring the absorbance at 260 nm of the nucleic acid solution while increasing the temperature at a rate of 1° C./min. Curves were smoothed by adjacent averaging.

[4] = system: complementary fluorogenic DNA (Q-STAR) probes; experiment: Nucleic acid-templated fluorogenic Q-STAR reaction (hybridization); type: biochemical
Procedure: To further test the effect of cloaking on hybridization, a nucleic acid-templated reaction was employed with complementary fluorogenic DNA (Q-STAR) probes (R. M. Franzini and E. T. Kool J. Am. Chem. Soc. 2009, 131, 16021-23; and W. A. Velema and E. T. Kool J. Am. Chem. Soc. 2017, 139, 5405-11; the disclosures of which are herein incorporated by reference). RNA template (untreated, cloaked or photo-uncloaked) was dissolved in 70 mM Tris-Borate buffer pH=7.0, 10 mM MgCl2 to a concentration of 200 nM. To this was added QSTAR probe (200 nM; Seq. ID No. 3) and TPP probe (400 nM; Seq. ID No. 4) and the fluorescence was monitored overtime at 25° C. on a Fluorolog 3-11 instrument (Jobin Yvon-SPEX). λex=497 nm and λem=519 nm. Plots were smoothed by adjacent averaging. […] After the cloaked RNA was exposed to light for up to an hour and subjected to the Q-STAR hybridization probes, a strong restoration of signal (82% of original) was observed (FIG. 17B), consistent with uncloaking at relatively high efficiency.

| Molecule | drop of rate vs mock-treated ribozyme ([1]; after cloaking with PCA 1) | initial rate of substrate conversion ([1]; cloaked RNA exposed to light) | ribozyme function after uncloaking ([1]; cloaked with PCA 1, after 365 nm light exposure) | ribozyme activity (substrate cleavage) ([1]; ribozyme cloaked with PCA 1, 200 nM, substrate 500 nM, 1 hour) | reaction with DNA (12 nt DNA) | Broccoli RNA fluorescence with DFHBI [2] | fluorescence signal in cells ([3]; 237 nt RNA cloaked with PCA 2, HeLa cells, subsequent light exposure (30 minutes)) | fluorescence signal in cells ([3]; 237 nt RNA cloaked with PCA 2, transfected in HeLa cells, no light) | difference in melting temperature vs untreated RNA strand (complementary DNA strand) | restoration of signal ([4]; cloaked RNA exposed to light for up to an hour) | fluorogenic templated reaction signal ([4]; cloaked RNA template 200 nM, no light, 25° C.) |
| --- | --- | --- | --- | --- | --- | --- | --- | --- | --- | --- | --- |
| COc1cc(COC(=O)n2ccnc2Cl)c([N+](=O)[O-])cc1OCCN(C)C [PCA 1, 4-(2-(dimethylamino)ethoxy)-5-methoxy-2-nitrobenzyl 2-chloro-1H-imidazole-1-carboxylate] | 370 fold | 1.1 min⁻¹ | almost completely restored | almost complete abrogation of activity | < 5% | strong suppression of fluorescence |  |  |  |  |  |
| COc1cc(C(C)OC(=O)n2ccnc2Cl)c([N+](=O)[O-])cc1OCCN(C)C (stereo not drawn) [PCA 2, 1-(4-(2-(dimethylamino)ethoxy)-5-methoxy-2-nitrophenyl)ethyl 2-chloro-1H-imidazole-1-carboxylate] |  |  |  |  |  | very dim fluorescence | emergence of a visible green fluorescence signal | no measurable signal above background |  |  |  |
| cloaked RNA template 1: RNA template 1 (Seq. ID No. 2, 5′ GCU CCC CAG CUU UCG C) acylated at 2′-OH with photocloaking groups (GCUCCCCAGCUUUCGC; RNA, backbone not given here; 2'-OH acylated with photocloaking groups, further chemistry not fully specified) |  |  |  |  |  |  |  |  | 10 °C | 82 % of original | 9 % of untreated RNA |
